Laboratory results taken from patent publication EP2886536A1 (priority 2013, dated 2015).
Where a name gives a salt, the structure may show the parent alone.

Columns and labels:
SK-Mel3 = assay: cells; assay type: cell-based; settings: Homo sapiens, SK-MEL3, 96 h, read-out: IC50 values
HEL 92.1.7 = assay: cells; assay type: cell-based; settings: Homo sapiens, HEL 92.1.7, 96 h, read-out: IC50 values
Jurkat = assay: cells; assay type: cell-based; settings: Homo sapiens, 96 h, read-out: IC50 values
U-937 = assay: cells; assay type: cell-based; settings: Homo sapiens, U-937, 96 h, read-out: IC50 values
Capan-1 = assay: cells; assay type: cell-based; settings: Homo sapiens, CAPAN-1, 96 h, read-out: IC50 values
LnCap clone FGC = assay: cells; assay type: cell-based; settings: Homo sapiens, 96 h, read-out: IC50 values
NCl-H460 = assay: cells; assay type: cell-based; settings: 96 h, read-out: IC50 values
HT-29 = assay: cells; assay type: cell-based; settings: Homo sapiens, HT-29, 96 h, read-out: IC50 values
MG-63 = assay: cells; assay type: cell-based; settings: Homo sapiens, MG-63, 96 h, read-out: IC50 values
SK-ES1 = assay: cells; assay type: cell-based; settings: Homo sapiens, SK-ES1, 96 h, read-out: IC50 values
physchem = settings: buffer, pH 7.2
in vitro [1] = settings: mouse, plasma
in vitro [2] = settings: human, plasma

Row | SMILES | IC50 (SK-Mel3) | IC50 (HEL 92.1.7) | IC50 (Jurkat) | IC50 (U-937) | IC50 (Capan-1) | IC50 (LnCap clone FGC) | IC50 (NCl-H460) | IC50 (HT-29) | IC50 (MG-63) | IC50 (SK-ES1) | half-life (physchem) | half-life (in vitro [1]) | half-life (in vitro [2])
1 | Cl.Cn1c(CCCC(=O)O)nc2ccc(N(CCCl)CCCl)cc21 [iso-bendamustine-HCl, 4-{6-[bis(2-chloroethyl)amino]-1-methyl-1H-benzimidazol-2-yl)butanoic acid hydrochloride] | > 100 µM | 76.5 ± 4.5 µM | 59.5 ± 4 µM | 59.8 ± 5.2 µM | 24.6 ± 4.4 µM | 18.9 ± 2.6 µM | > 100 µM | > 100 µM | 50.1 ± 5.5 µM | 9.6 ± 1.5 µM | 11.6 ± 1.9 min | 60.5 ± 2.7 min | 83.8 ± 9.3 min
2 | CCOC(=O)CCCc1nc2ccc(N(CCCl)CCCl)cc2n1C [iso-bendamustine ethyl ester, ethyl 4-{6-[bis(2-chloroethyl)amino]-1-methyl-1H-benzimidazol-2-yl}butanoate] | 11.7 ± 2.5 µM | 3.5 ± 0.3 µM | 3.9 ± 0.3 µM | 1.6 ± 0.03 µM | 0.91 ± 0.15 µM | 1.5 ± 0.34 µM | 5.4 ± 0.2 µM | 11 ± 1.1 µM | 1.9 ± 0.1 µM | 0.24 ± 0.04 µM | 15.3 ± 3.8 min | < 2 min | 141 ± 6.3 min
3 | Cn1c(CCCC(=O)O)nc2cc(N(CCCl)CCCl)ccc21 [bendamustine-HCl, 4-{5-[bis(2-chloroethyl)amino]-1-methyl-1H-benzimidazol-2-yl}butanoic acid, reference compound] | > 100 µM | 84 ± 7.7 µM | 42.6 ± 5.6 µM | 91.9 ± 16.4 µM | 25.2 ± 5.4 µM | 71.6 ± 5.4 µM | 89.5 ± 10.4 µM | > 100 µM | 55 ± 3.3 µM | 11 ± 1.6 µM | 10.8 ± 2.9 min | 35 ± 2.2 min | 131 ± 10.2 min
